Experimental data as given in patent EP0392976A1, “Monoclonal antibodies to tetracyclic compounds, processes for their production, and applications” (CIBA-GEIGY AG, priority 1989, dated 1990).
Where two headings read alike, the source gives them in different places.

Experiments:
Experiment in all cases: inhibition enzyme immunoassay: inhibition of MAb binding to surface bound R-(-)-oxaprotiline-mucin conjugate
Set-up in all cases: species or system mouse
MAb 1219S78.6 = conditions: for IC50: read-out: IC₅₀
Experimental: (§1) The affinities of the monoclonal antibodies of the invention to R-(-)-oxaprotiline can for example be determined in an inhibition enzyme immunoassay according to Friguet et al. (J. Immunol. Methods 77, 305, 1985) wherein the monoclonal antibody to be tested is preincubated with R-(-)-oxaprotiline and, in a second step, exposed to a solid phase coated with an adsorbable conjugate of R-(-)-oxaprotiline, e.g. a protein conjugate. The fraction of the monoclonal antibody not engaged in immunocomplexes binds to the solid phase and is quantified by a secondary antibody-enzyme conjugate directed against the monoclonal antibody. The affinities are expressed as IC₅₀ (inhibition concentration) values, i.e. the concentration of free antigen causing a 50 % inhibition of antibody binding to the solid phase antigen.
(§2) This can be done, for example, in an inhibition enzyme immunoassay wherein the monoclonal antibodies of the invention are preincubated with any of the soluble compounds listed above and the incubation mixture is then tested in the enzyme immunoassay described above.
(§3) The conjugate solution (0.66 mg/ml) is diluted 1000-fold in coating buffer pH 9.8 (477 mg sodium carbonate, 897 mg sodium hydrogen carbonate, 60 mg sodium azide, 300 ml distilled water) and incubated in the wells of a microtitre plate for 2 days at 4°C. The wells are washed three times with PBS containing Tween 20 (Sigma, 0.1 %). Residual adsorption sites on the plate are saturated by incubation with 100 µl of PBS/Tween 20 for 1 h. 100 µl of a solution to be tested for the presence of antibodies to R-(-)-oxaprotiline are incubated in the wells for 1 h at room temperature. After washing three times with PBS/Tween 20, an alkaline phosphatase conjugated anti-mouse IgG antiserum (Sigma) is added in a 1000-fold dilution for 1 h at 37°C. The microtitre plate is washed five times with PBS/Tween 20, and the enzyme-conjugated bound antiserum developed with an alkaline phosphatase substrate consisting of disodium p-nitrophenylphosphate (1 mg/ml; Sigma) in diethanolamine buffer pH 9.8. The substrate gives a yellow coloration which is measured with a colorimeter (Titertek Multiskan) at a wave length of 405 nm after 60 min.
(§4) The assay is carried out as described in the following.
(§5) The capacity of free R-(-)-oxaprotiline and of a number of compounds which are structurally analogous to R-(-)-oxaprotiline to inhibit the binding of the monoclonal antibodies of the invention to the antigen is determined in an inhibition enzyme immunoassay essentially as described in example 3.2. The MAbs are preincubated with free R-(-)-oxaprotiline and with various structural analogues, respectively, instead of with the test compounds of example 3.2.

MAb 1228P63.1 = conditions: for IC50: read-out: IC₅₀
Experimental: as §1, §2, §3, §4, §5

MAb 1219S59.11 = conditions: for IC50: read-out: IC₅₀
Experimental: as §1, §2, §3, §4, §5

MAb 1225S93.2 = conditions: for IC50: read-out: IC₅₀
Experimental: as §1, §2, §3, §4, §5

MAb 1226S31.3 = tested on: MAb 1226S31.3
Experimental: as §1, §2, §3
The capacity of a number of therapeutic drugs some of which are used in combination with antidepressants and of biogenic amines to inhibit the binding of the monoclonal antibodies of the invention to the antigen is determined in a two-step inhibition enzyme immunoassay to establish the selectivity of the monoclonal antibodies to the tested compounds.
as §4, §5

[1] = MAb 1228P63.1, derived from IC50, compound 1 = 1
[2] = MAb 1219S59.11, derived from IC50, compound 1 = 1
[3] = MAb 1225S93.2, derived from IC50, compound 1 = 1
[4] = Mab 1226S31.3, therapeutic drugs and biogenic amines, 1 µM-150 pM, preincubated overnight, read-out: IC50

IC50 (MAb 1226S31.3; [4])	rel. affinity (MAb 1219S59.11; [2])	Compound	IC50 relative to reference compound (fold) (MAb 1219S78.6)	IC50 (MAb 1219S78.6; MAb 1219S78.6)	rel. affinity (MAb 1228P63.1)	IC50 (MAb 1228P63.1; MAb 1228P63.1)	rel. affinity (MAb 1219S59.11)	IC50 (MAb 1219S59.11; MAb 1219S59.11)	rel. affinity (MAb 1225S93.2)	IC50 (MAb 1225S93.2; MAb 1225S93.2)	rel. affinity (MAb 1226S31.3)	IC50 (MAb 1226S31.3; MAb 1226S31.3, read-out: IC₅₀)	IC50 relative to reference compound (fold) (MAb 1219S78.6; MAb 1219S78.6, derived from IC50, compound 1 = 1)	rel. affinity (MAb 1228P63.1; [1])	IC50 relative to reference compound (higher = weaker binding) (MAb 1219S59.11; [2])	rel. affinity (MAb 1225S93.2; [3])	rel. affinity (MAb 1226S31.3; MAb 1226S31.3, derived from IC50, compound 1 = 1)
		CN1COC(CC23CCC(c4ccccc42)c2ccccc23)C1 (centres unmarked) [compound 13, 3-methyl-5-(dibenzo-[b,e]bicyclo[2.2.2]-octadienyl-1-methyl)-oxazolidine-methane-sulfonate]	1.6	0.48 nM	1.6	1.2 nM	1.9	0.55 nM	1.6	0.58 nM	0.7	4.45 nM					
		CN(C)CC(O)CC12CCC(c3ccccc31)c1ccc(C(F)(F)F)cc12 (centres unmarked) [compound 17]	>3279	> 1000 nM	>1667	> 1250 nM	>3448	> 1000 nM	628.4	232 nM	>149	> 1000 nM					
		CNC[C@@H](CC12CCC(c3ccccc31)c1ccccc12)O[C@@H]1O[C@H](C(=O)O)[C@@H](O)[C@H](O)[C@H]1O [compound 4, R-(-)-1-(2-glucuronyl-3-methylamino-propyl)-dibenzo[b,e]bicyclo-[2.2.2]octadiene]	229.5	70 nM	68.0	51 nM	244.8	71 nM	245.9	91 nM	4.1	27.5 nM					
		CN(C)CC(O)CC12CCC(c3ccccc31)c1ccc(Cl)cc12 (centres unmarked) [compound 15, 1-(2-hydroxy-3-dimethylamino-propyl]-10-chlorodibenzo[b,e]-bicyclo[2.2.2]-octadiene-cyclamate]	170.5	52 nM	16.7	12.5 nM	124.1	36 nM	74.3	27.5 nM	7.5	50 nM					
> 1000 nM		NCCc1c[nH]cn1 [Histamine, 1H-imidazole-4-ethane-amine]															
	8.8	CNCCCC12CCC(c3ccccc31)c1ccccc12 [compound 6, 1-(3-methylamino-propyl)-dibenzo[b,e]-bicyclo[2.2.2]-octadiene-hydro-chloride]												1.4		1.2	
> 1000 nM		NCC(O)c1ccc(O)c(O)c1 [L-Norepinephrin, 4-[2-amino-1-hydroxy-ethyl]-1,2-benzenediol]															

Compound	IC50 (MAb 1226S31.3; [4])	rel. affinity (MAb 1219S59.11; [2])	IC50 relative to reference compound (fold) (MAb 1219S78.6)	IC50 (MAb 1219S78.6; MAb 1219S78.6)	rel. affinity (MAb 1228P63.1)	IC50 (MAb 1228P63.1; MAb 1228P63.1)	rel. affinity (MAb 1219S59.11)	IC50 (MAb 1219S59.11; MAb 1219S59.11)	rel. affinity (MAb 1225S93.2)	IC50 (MAb 1225S93.2; MAb 1225S93.2)	rel. affinity (MAb 1226S31.3)	IC50 (MAb 1226S31.3; MAb 1226S31.3, read-out: IC₅₀)	IC50 relative to reference compound (fold) (MAb 1219S78.6; MAb 1219S78.6, derived from IC50, compound 1 = 1)	rel. affinity (MAb 1228P63.1; [1])	IC50 relative to reference compound (higher = weaker binding) (MAb 1219S59.11; [2])	rel. affinity (MAb 1225S93.2; [3])	rel. affinity (MAb 1226S31.3; MAb 1226S31.3, derived from IC50, compound 1 = 1)
CNC[C@H](O)CC12CCC(c3ccccc31)c1ccccc12 [compound 1]	6.7 nM			0.305 nM		0.75 nM		0.29 nM		0.37 nM		6.7 nM	1	1	1	1	1
